Source: US7384629B2, “Biological control of nematodes with Hirsutella minnesotensis” (Regents of the University of Minnesota, priority 2000, dated 2008)

Columns and labels:
[1] = test system: Hirsutella rhossiliensis; assay: Effect of nitrogen source on growth, sporulation and spore germination; conditions: for Growth mm-in-diam, on agar: nitrogen source 0.3296 g/L nitrogen; for Growth mm-in-diam, on agar / growth in liquit culture (visual rating) / Sporulation 10^3/cm^2, on agar: 5 weeks; for Spore germination %, on agar / growth in liquit culture (visual rating) / Sporulation 10^3/cm^2, on agar: nitrogen source
[2] = test system: Hirsutella rhossiliensis; assay: Effect of carbon source on growth, sporulation and spore germination; conditions: for Growth mm-in-diam, on agar: carbon source 4 g/liter carbon; for Growth mm-in-diam, on agar / Sporulation 10^3/cm^2, on agar / growth in liquid culture (visual rating): 5 weeks; for Sporulation 10^3/cm^2, on agar / growth in liquid culture (visual rating) / Spore germination %, on agar: carbon source; for Spore germination %, on agar: after incubation for 24 hr

Compound | Growth mm-in-diam, on agar ([1]; isolate ATCC46487) [mm-in-diam] | Growth mm-in-diam, on agar ([1]; isolate JA16-1) [mm-in-diam] | Growth mm-in-diam, on agar ([1]; isolate OWVT-1) | Spore germination %, on agar ([1]; isolate ATCC46487) [%] | Spore germination %, on agar ([1]; isolate JA16-1) [%] | Spore germination %, on agar ([1]; isolate OWVT-1) [%] | growth in liquit culture (visual rating) ([1]; isolate OWVT-1) | growth in liquit culture (visual rating) ([1]; isolate JA16-1) | Growth mm-in-diam, on agar ([2]; isolate ATCC46487) [mm-in-diam] | Growth mm-in-diam, on agar ([2]; isolate JA16-1) [mm-in-diam] | Growth mm-in-diam, on agar ([2]; isolate OWVT-1) [mm-in-diam] | Sporulation 10^3/cm^2, on agar ([2]; isolate ATCC46487) | Spore germination %, on agar ([2]; isolate ATCC46487) [%] | Sporulation 10^3/cm^2, on agar ([2]; isolate JA16-1) | growth in liquid culture (visual rating) ([2]; isolate JA16-1) | Spore germination %, on agar ([2]; isolate JA16-1) [%] | Sporulation 10^3/cm^2, on agar ([2]; isolate OWVT-1) | Spore germination %, on agar ([2]; isolate OWVT-1) [%] | also measured
NC(CCC(=O)O)C(=O)O (racemic) [DL-Glutamic acid] | 40.8 | 12.8 | 18.7 mm-in-diam | 74.4 | 90.0 | 48.9 | III (III = hyphae growth or colonies form a pellet, less than 2.5 ml) |  |  |  |  |  |  |  |  |  |  |  | 
CSCCC(N)C(=O)O (racemic) [DL-Methionine] | 11.7 | 0.0 | 0.0^ mm-in-diam | 74.4 | 70.0 | 63.3 | I | I |  |  |  |  |  |  |  |  |  |  | Sporulation 10^3/cm^2, on agar ([1]; isolate ATCC46487): 3.2 10^3/cm^2; growth in liquit culture (visual rating) ([1]; isolate ATCC46487): III (III = hyphae growth or colonies form a pellet, less than 2.5 ml); Sporulation 10^3/cm^2, on agar ([1]; isolate JA16-1): 10.8 10^3/cm^2; Sporulation 10^3/cm^2, on agar ([1]; isolate OWVT-1): 0.0 10^3/cm^2
NC(CO)C(=O)O (racemic) [DL-Serine] | 45.3 | 10.2 | 17.2 mm-in-diam | 84.4 | 87.8 | 72.2 | IV (IV = the pellet diameter larger than 1 cm, but the total volume distribution less than 5 ml) | III (III = hyphae growth or colonies form a pellet, less than 2.5 ml) |  |  |  |  |  |  |  |  |  |  | 
C[C@@H](O)[C@H](N)C(=O)O (racemic) [DL-Threonine] | 25.4 | 8.3 | 9.0 mm-in-diam | 93.3 | 83.3 | 48.9 | III (III = hyphae growth or colonies form a pellet, less than 2.5 ml) | IV (IV = the pellet diameter larger than 1 cm, but the total volume distribution less than 5 ml) |  |  |  |  |  |  |  |  |  |  | 
NCC(=O)O [Glycine] | 41.5 | 7.5 | 10.7 mm-in-diam | 75.6 | 93.3 | 60.0 | III (III = hyphae growth or colonies form a pellet, less than 2.5 ml) | III (III = hyphae growth or colonies form a pellet, less than 2.5 ml) |  |  |  |  |  |  |  |  |  |  | 
NC(=O)C[C@H](N)C(=O)O [L-Asparagine] | 51.8 | 16.5 | 20.8 mm-in-diam | 93.3 | 85.5 | 70.0 | III (III = hyphae growth or colonies form a pellet, less than 2.5 ml) | IV (IV = the pellet diameter larger than 1 cm, but the total volume distribution less than 5 ml) |  |  |  |  |  |  |  |  |  |  | 
N[C@@H](CC(=O)O)C(=O)O [L-Aspartic acid] | 43.8 | 13.3 | 16.8 mm-in-diam | 93.3 | 90.0 | 53.3 | III (III = hyphae growth or colonies form a pellet, less than 2.5 ml) | IV (IV = the pellet diameter larger than 1 cm, but the total volume distribution less than 5 ml) |  |  |  |  |  |  |  |  |  |  | 
N[C@@H](Cc1c[nH]cn1)C(=O)O [L-Histidine] | 36.3 | 8.5 | 12.8 mm-in-diam | 82.2 | 82.2 | 65.6 | III (III = hyphae growth or colonies form a pellet, less than 2.5 ml) |  |  |  |  |  |  |  |  |  |  |  | Sporulation 10^3/cm^2, on agar ([1]; isolate ATCC46487): 1.8 10^3/cm^2; Sporulation 10^3/cm^2, on agar ([1]; isolate JA16-1): 3.4 10^3/cm^2; Sporulation 10^3/cm^2, on agar ([1]; isolate OWVT-1): 2.1 10^3/cm^2
OC[C@H]1O[C@H](OCC2O[C@@H](O)[C@H](O)[C@@H](O)[C@@H]2O)[C@H](O)[C@@H](O)[C@H]1O (stereo partly shown) [Melibiose] |  |  |  |  |  |  |  |  | 35.0 | 11.8 | 18.2 | 41.9 10^3/cm^2 | 40.0 | 13.1 10^3/cm^2 | I | 61.7 | 33.7 10^3/cm^2 | 48.9 | growth in liquid culture (visual rating) ([2]; isolate ATCC46487): III (III = hyphae growth or colonies form a pellet, less than 2.5 ml)
OC[C@H]1O[C@@](CO)(O[C@H]2O[C@H](CO)[C@@H](O)[C@H](O)[C@H]2O)[C@@H](O)[C@@H]1O [Sucrose] |  |  |  |  |  |  |  |  | 39.5 | 15.0 | 21.8 | 38.9 10^3/cm^2 | 55.6 | 6.9 10^3/cm^2 | I | 73.4 | 47.7 10^3/cm^2 | 52.2 | growth in liquid culture (visual rating) ([2]; isolate ATCC46487): III (III = hyphae growth or colonies form a pellet, less than 2.5 ml)
O.OC[C@H]1O[C@@H](O[C@H]2[C@H](O)[C@@H](O)[C@@H](O)O[C@@H]2CO)[C@H](O)[C@@H](O)[C@H]1O [a-lactose monohydrate] |  |  |  |  |  |  |  |  | 35.8 | 15.8 | 9.8 | 2.4 10^3/cm^2 | 56.7 | 37.3 10^3/cm^2 | I | 68.9 | 17.4 10^3/cm^2 | 42.2 | growth in liquid culture (visual rating) ([2]; isolate ATCC46487): I; growth in liquid culture (visual rating) ([2]; isolate OWVT-1): I
Glycogen |  |  |  |  |  |  |  |  | 46.8 | 20.5 | 34.8 | 77.5 10^3/cm^2 | 72.2 | 12.4 10^3/cm^2 | IV (IV = the pellet diameter larger than 1 cm, but the total volume distribution less than 5 ml) | 77.8 | 7.9 10^3/cm^2 | 72.2 | growth in liquid culture (visual rating) ([2]; isolate OWVT-1): IV (IV = the pellet diameter larger than 1 cm, but the total volume distribution less than 5 ml)
Inulin |  |  |  |  |  |  |  |  | 36.7 | 20.0 | 25.2 | 3.5 10^3/cm^2 | 54.4 | 10.4 10^3/cm^2 | I | 72.2 | 4.2 10^3/cm^2 | 50.0 | 
